Where two headings read alike, the source gives them in different places.

Holding throughout (type): cell-based
Experiment [1] relates to MDA-MB-231 a human breast carcinoma. Kind of experiment: BrdU proliferation assay, MDA-MB-231 (anti-tumor activity). As to conditions: BrdU DNA synthesis, 48 h exposure, read-out: MDA-MB-231 (IC50 μM). The source says:
(§1) Cell Culture: Human umbilical vein endothelial cells (HUVEC) were obtained from Clonetics (San Diego, Calif.), MCF7 cells were the kind gift of Dr. Dorraya El Ashry (University of Michigan), MDA-MB-231 a human breast carcinoma, PC3 a human prostate carcinoma, and U87-MG a human glioma, cell lines were obtained from ATCC. HUVEC cultures were maintained for up to 5 passages in EGM containing bovine brain extract (Clonetics) and 1× antibiotic-antimycotic (BioWhittaker, Walkersville, Md.). MDA-MB-231, PC3, U87-MG and MCF-7 cells were maintained in DMEM/F12 (1:1) containing 10% (v/v) fetal bovine serum (Hyclone Laboratories, Logan, Utah) and 1× antibiotic-antimycotic. MCF7 cells were used between passage 60 and passage 100.
(§2) Proliferation Assays: Proliferation was measured by cell counting using a Coulter Zl cell counter (Coulter Corporation, Hialeah, Fla.) or by evaluation of DNA synthesis. Each condition was done in triplicate and experiments were repeated at least twice. To determine estrogenicity of the analogs, MCF7 estrogen-dependent proliferation assays were performed. The cells were seeded in complete media at 10,000 cells/well in a 24 well plate after allowing the cells to adhere overnight and the seeding density was determined by cell counts. Cells were washed with PBS (37° C.) and starved by placing them in IMEM-phenol red free media containing 2% charcoal-dextran fetal bovine-stripped serum (Valley Biomedical, Winchester, Va.) and 1× antibiotic-antimycotic. After 3 days of starvation, cells were treated with or without increasing concentrations of compounds, replacing the media every 2-3 days and counted after 7 days of treatment. In order to ensure that only the added test compounds stimulated growth, experiments were performed only with cell cultures that duplicated less than once during the starvation period. Values are expressed as MCF7 stimulation index (SI) relative to 2ME2 (defined as 1.00). A value less than 1.00 indicates reduced estrogenicity. Estradiol is used as a positive control.
(§3) To determine anti-tumor and anti-angiogenic activities of the analogs, proliferation assays were performed by evaluating detection of DNA synthesis by use of the 5-bromo-2′-deoxyuridine (BrdU) cell proliferation colorimetric ELISA kit from Roche (Indianapolis, Ind.) according to the manufacturer's instructions. For BrdU assays, the cells were seeded at 1,000 cells/well (MDA-MB-231, anti-tumor activity) or 3,000 cells/well (HUVEC, anti-angiogenic activity) in a 96 well plate, allowed to attach overnight and then exposed to the compound for 48 h. IC50 value is the concentration at which cell proliferation is inhibited by 50%.
(§4) Antiproliferative activity of the NCEs were assessed in tumor cell lines (MDA-MB-231 a breast carcinoma, PC3 a prostate carcinoma and U87-MG a glioma) and endothelial cells (HUVEC).

Experiment [2] relates to U87-MG a human glioma. Kind of experiment: Proliferation assay, U87-MG. The following applies: proliferation, read-out: U87-MG (IC50 μM).
Text: as §1, §2, §3, §4

For experiment [3], the system named is PC3 a human prostate carcinoma. Kind of experiment: Proliferation assay, PC3. As to conditions: proliferation, read-out: PC3 (IC50 μM).
Text: as §1, §2, §3, §4

The test system of experiment [4] is Human umbilical vein endothelial cells (HUVEC). Kind of experiment: BrdU proliferation assay, HUVEC (anti-angiogenic activity). The following applies: BrdU DNA synthesis, 48 h exposure, read-out: HUVEC (IC50 μM).
Text: as §1, §2, §3, §4

By IC50 is commonly meant the concentration at which inhibition is half-maximal. For `COc1cc2c(cc1C(N)=O)CC[C@@H]1[C@@H]2CC[C@]2(C)C(=O)CC[C@@H]12` [Compound 54, 2-methoxy-17-oxoestra-1,3,5(10)-triene-3-carboxamide], the 50% inhibitory concentration (IC50) in experiment [1] (Homo sapiens, MDA-MB-231) worked out at 2.2 ± 0.43 µM; in experiment [2] (Homo sapiens, U-87 MG), 2.23 ± 0.4 µM; in experiment [3] (Homo sapiens), 4.64 ± 0.9 µM; in experiment [4] (Homo sapiens, HUVEC), 5.46 ± 1.57 µM.

For the compound `COc1cc2c(cc1C(N)=O)CC[C@@H]1[C@@H]2CC[C@]2(C)CCC[C@@H]12` [Compound 57, (2-Methoxyestra-1,3,5(10)-trien-3-yl)-3-carboxamide], the half-maximal inhibitory concentration (IC50) amounted to 2.37 ± 0.8 µM in experiment [1], 10 ± 2.49 µM in experiment [2], 5.7 ± 0.58 µM in experiment [3] and 0.96 ± 0.26 µM in experiment [4].

For the compound `C=C1CC[C@H]2[C@@H]3CCc4cc(C(N)=O)c(OC)cc4[C@H]3CC[C@]12C` [Compound 60, 2-Methoxy-17-methyleneestra-1,3,5(10)-triene-3-carboxamide], the IC50 in experiment [1] (Homo sapiens, MDA-MB-231) was determined as 0.19 ± 0.08 µM; in experiment [2] (Homo sapiens, U-87 MG), 0.25 ± 0.02 µM; in experiment [3] (Homo sapiens), 0.25 ± 0.01 µM; in experiment [4] (Homo sapiens, HUVEC) it was 0.12 ± 0.06 µM.

With `COc1cc2c(cc1C(N)=O)CC[C@@H]1[C@@H]2CC[C@]2(C)C=CC[C@@H]12` [Compound 63, 3-carboxamide-2-methoxy-1,3,5(10)16-estratetraene], the half-maximal inhibitory concentration (IC50) in experiment [1] was 0.19 ± 0.04 µM; in experiment [2], 0.23 ± 0.08 µM; in experiment [3] it was 0.21 ± 0.1 µM; in experiment [4], 0.13 ± 0.05 µM.

The values above are taken from patent US20070004689A1, “Antiangiogenic agents” (priority 2004, published 2007).
